What was measured:
SaTrpRS [1] = target: T1, SaTrpRS (Staphylococcus aureus, UniProt P67594); test: ATP consumption, Kinase-Glo luminescence; type: biochemical; settings: 2 μM ATP, 10 μM Trp, 40 mM MgCl2, 50 mM NH2OH instead of tRNA, pH 7.5, 37 °C, 1.5 h
T1 construct: gene trpS; codon-optimised synthetic gene, C-terminal 6xHis tag (pET-28a), no tag cleavage told; E. coli BL21(DE3); dimer

EcTrpRS [2] = target: T2, EcTrpRS (Escherichia coli, UniProt P00954); test: X-ray crystal structure; type: binding
T2 construct: gene trpS; C-terminal 6xHis tag (pET-28a), no tag cleavage told; E. coli BL21(DE3); two chains in asymmetric unit

EcTrpRS [3] = target: T2, EcTrpRS; test: ATP consumption, Kinase-Glo luminescence; type: biochemical; settings: 2 μM ATP, 10 μM Trp, 40 mM MgCl2, 50 mM NH2OH instead of tRNA, pH 7.5, 37 °C; Trp site
SaTrpRS [4] = target: T1, SaTrpRS; test: X-ray crystal structure; type: binding; settings: Trp site
SaTrpRS [5] = target: T1, SaTrpRS; test: ATP consumption, Kinase-Glo luminescence; type: biochemical; settings: 2 μM ATP, 10 μM Trp, 40 mM MgCl2, 50 mM NH2OH instead of tRNA, pH 7.5, 37 °C; Trp site

T1 sequence (P67594 whole entry): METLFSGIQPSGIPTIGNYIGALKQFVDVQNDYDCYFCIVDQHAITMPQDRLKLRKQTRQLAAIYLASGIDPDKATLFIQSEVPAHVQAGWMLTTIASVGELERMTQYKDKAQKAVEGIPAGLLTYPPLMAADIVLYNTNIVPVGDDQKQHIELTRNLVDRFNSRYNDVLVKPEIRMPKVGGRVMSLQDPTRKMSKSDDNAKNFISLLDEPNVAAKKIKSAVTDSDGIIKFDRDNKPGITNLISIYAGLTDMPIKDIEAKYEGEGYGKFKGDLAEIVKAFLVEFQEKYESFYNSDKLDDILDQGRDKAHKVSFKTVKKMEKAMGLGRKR

`Nc1ncnc2c1ncn2[C@@H]1O[C@H](COP(=O)(O)OP(=O)(O)OP(=O)(O)O)[C@@H](O)[C@H]1O` [ATP] was tested, and the “ATP consumption, Kinase-Glo luminescence” value (SaTrpRS [1]) was “The activity of TrpRS was measured vis ATP hydrolysis using Kinase-Glo® kit”.

For `CC1c2c[nH]c3cccc(c23)SC1C(=O)O` (centres unmarked) [CXM, chuangxinmycin], the X-ray crystal structure (EcTrpRS [2]; 2.24 Å, open chain A, Trp site, also ternary with ATP and Mg2+ (1.92 and 2.15 Å)) was “Chain A exists in an open state and binds to a CXM molecule” and the inhibition (EcTrpRS [3]) was “Inhibition of EcTrpRS by CXM, dCXM, and mCXM, as measured by ATP hydrolysis assays”.

In the case of `O=C(O)C1Cc2c[nH]c3cccc(c23)S1` (centres unmarked) [dCXM, 3-demethylchuangxinmycin], the X-ray crystal structure (EcTrpRS [2]; Trp site) is reported as “The complex structures of these analogues with EcTrpRS and SaTrpRS were solved” and the inhibition (EcTrpRS [3]) is reported as “Inhibition of EcTrpRS by CXM, dCXM, and mCXM, as measured by ATP hydrolysis assays”.

With `CC1(C)c2c[nH]c3cccc(c23)S[C@H]1C(=O)O` [mCXM, 3-methylchuangxinmycin] the X-ray crystal structure (SaTrpRS [4]) was “The complex structures of these analogues with EcTrpRS and SaTrpRS were solved”, the X-ray crystal structure (EcTrpRS [2]; Trp site) was “The complex structures of these analogues with EcTrpRS and SaTrpRS were solved” and the inhibition (EcTrpRS [3]) was “The inhibitory activity of mCXM against EcTrpRS is lower than that of CXM”. The inhibition (SaTrpRS [5]) was “mCXM exhibits stronger inhibition of SaTrpRS compared to EcTrpRS”.

For `N[C@@H](Cc1c[nH]c2ccccc12)C(=O)O` [tryptophan], the X-ray crystal structure (SaTrpRS [4]; 2.32 Å) was “SaTrpRS in complex with Trp (SaTrpRS/Trp complex)”.

`Nc1ncnc2c1ncn2[C@@H]1O[C@H](COP(=O)(O)OC(=O)[C@@H](N)Cc2c[nH]c3ccccc23)[C@@H](O)[C@H]1O` [tryptophanyl-5′-AMP] was tested, and the X-ray crystal structure (EcTrpRS [2]; 2.24 Å, endogenous, closed chain B, enzyme-bound reaction intermediate) was “chain B is in a closed state and binds to an endogenous tryptophanyl-5′-AMP (TrpAMP) molecule”.
